According to patent US10940188B2, “Compounds and methods for treatment and prevention of Flavivirus infection” (priority 2016, dated 2021):

Each compound was assayed on ZIKV-induced caspase 3/7 activity in SNB-19 cells (assay: Caspase 3/7 activity assay, ZIKV-infected SNB-19 cells). Conditions: ZIKV-infected SNB-19 cells.
Format: cell-based
Protocol: (§1) Caspase-Glo 3/7 assay kit (catalog number G8092; Promega, Madison, Wis.) was used to detect caspase 3/7 activity. Reagents were reconstituted as described in the protocol from the manufacturer. Polystyrene plates (384-well and 1536-well; regular tissue culture treated and PDL coated) were purchased from Greiner Bio-One (Monroe, N.C.). Cells were seeded in 384- and 1536-well assay plates and cultured at 37° C. with 5% CO2 for 16 hours. ZIKV solution was added to cells, followed by incubation at 37° C. with 5% CO2 for 6 hours. Caspase-Glo 3/7 was added to each well, unless otherwise specified, and incubated at room temperature for 30 minutes. The luminescence intensity of the assay plates was measured using a ViewLux plate reader (PerkinElmer). Data were normalized by using the cell-containing wells without ZIKV as a negative control (0% induction of caspase 3/7 activity) and wells containing ZIKV infected cells that induced caspase 3/7 activity were used as a positive control (100% induction of caspase 3/7 activity). […]
(§2) Caspase-Glo 3/7 assay kit (Promega) was used to detect caspase 3/7 activity. Reagents were reconstituted as described in the protocol from the manufacturer. Cells were seeded in 384- and 1536-well assay plates and cultured at 37° C. with 5% CO2 for 16 hours. ZIKV solution was added to cells, followed by incubation at 37° C. with 5% CO2 for 6 hours. Caspase-Glo 3/7 was added to each well at a 1:1 ratio, unless otherwise specified, and incubated at room temperature for 30 minutes. The luminescence intensity of the assay plates was measured using a ViewLux plate reader (PerkinElmer). Data was normalized by using the cell-containing wells without ZIKV as a negative (0% induction of caspase 3/7 activity) control and wells containing ZIKV infected cells that induced caspase 3/7 activity were used as a positive control (100% induction of caspase 3/7 activity). […]

Compound	Caspase 3 (efficacy, %) SNB-19 [%]
N#C/C(=C\c1ccc(O)c(O)c1)C(=O)Nc1ccccc1 [Tyrphostin AG 494]	55.6
COc1cccc(NC(=O)/C=C/c2ccc(Cl)cc2)c1 [SB-366791]	93.3
CC(C)(C)COc1ccc(-n2cc(C(=O)O)cn2)cc1C#N [Piraxostat]	63.5
CN(C)c1ccc(N=NS(=O)(=O)[O-])cc1.[Na+] [Fenaminosulf]	0.0

Same assay, conditions: ZIKV-infected SNB-19 cells; read-out: Caspase 3 (IC50, uM) SNB-19

Compound	IC50 [µM]
N#C/C(=C\c1ccc(O)c(O)c1)C(=O)Nc1ccccc1 [Tyrphostin AG 494]	21.8
COc1cccc(NC(=O)/C=C/c2ccc(Cl)cc2)c1 [SB-366791]	3.66
CC(C)(C)COc1ccc(-n2cc(C(=O)O)cn2)cc1C#N [Piraxostat]	21.1

The compounds below were run on ZIKV-induced cell death in SNB-19 cells (assay: ATP cell viability assay for ZIKV-induced cell death, SNB-19 cells). Conditions: ZIKV-infected SNB-19 cells.
Format: cell-based, human
Protocol: (§3) The reagent was reconstituted and prepared as described by the manufacturer. In order to measure the cell death caused by ZIKV infection, cells were cultured for 16 hours at 37° C. with 5% CO2 in assay plates, followed by the addition of ZIKV solution and incubation at 37° C. with 5% CO2 for 72 hours. ATPlite, the ATP monitoring reagent, was then added to the assay plates and they were incubated for 15 minutes. The resulting luminescence was measured using the ViewLux plate reader (Perkin Elmer). Data were normalized using the wells without cells as a control for 100% cell killing, and cell-containing wells without ZIKV infection were used as full cell viability (0% cell killing). […]
as §3, with “The ATPlite luminescence assay system assay kit (PerkinElmer) was used to determine cell viability. The reagent” for “The reagent”, “by the manufacture. In order” for “by the manufacturer. In order”, “followed by addition of” for “followed by the addition of”, “plates and incubated for” for “plates and they were incubated for”, “Elmer). Data was normalized using” for “Elmer). Data were normalized using”

Compound	Cell viability (efficacy, %) SNB-19 [%]
N#C/C(=C\c1ccc(O)c(O)c1)C(=O)Nc1ccccc1 [Tyrphostin AG 494]	45.6
COc1cccc(NC(=O)/C=C/c2ccc(Cl)cc2)c1 [SB-366791]	0.0
CC(C)(C)COc1ccc(-n2cc(C(=O)O)cn2)cc1C#N [Piraxostat]	60.3
CN(C)c1ccc(N=NS(=O)(=O)[O-])cc1.[Na+] [Fenaminosulf]	36.7

Same assay, conditions: ZIKV-infected SNB-19 cells; read-out: Cell viability (IC50, uM) SNB-19

Compound	IC50 [µM]
N#C/C(=C\c1ccc(O)c(O)c1)C(=O)Nc1ccccc1 [Tyrphostin AG 494]	30.8
CC(C)(C)COc1ccc(-n2cc(C(=O)O)cn2)cc1C#N [Piraxostat]	5.01
CN(C)c1ccc(N=NS(=O)(=O)[O-])cc1.[Na+] [Fenaminosulf]	15.8

Each compound was assayed on ZIKV-induced cell death in human astrocytes (assay: ATP cell viability assay for ZIKV-induced cell death, human astrocytes). Conditions: ZIKV-infected human astrocytes.
Format: cell-based

Compound	Cell viability (efficacy, %) Astrocyte [%]
N#C/C(=C\c1ccc(O)c(O)c1)C(=O)Nc1ccccc1 [Tyrphostin AG 494]	0.0
COc1cccc(NC(=O)/C=C/c2ccc(Cl)cc2)c1 [SB-366791]	0.0
CC(C)(C)COc1ccc(-n2cc(C(=O)O)cn2)cc1C#N [Piraxostat]	34.7
CN(C)c1ccc(N=NS(=O)(=O)[O-])cc1.[Na+] [Fenaminosulf]	0.0

Same assay, conditions: ZIKV-infected human astrocytes; read-out: Cell viability (IC50, uM) Astrocyte

Compound	IC50 [µM]
CC(C)(C)COc1ccc(-n2cc(C(=O)O)cn2)cc1C#N [Piraxostat]	63.1

What follows are compounds tested on ZIKV-induced caspase 3/7 activity in human astrocytes (assay: Caspase 3/7 activity assay, ZIKV-infected human astrocytes). Conditions: ZIKV-infected human astrocytes.
Format: cell-based
Protocol: as §1, §2

Compound	Caspase 3 (efficacy, %) Astrocyte [%]
N#C/C(=C\c1ccc(O)c(O)c1)C(=O)Nc1ccccc1 [Tyrphostin AG 494]	72.5
COc1cccc(NC(=O)/C=C/c2ccc(Cl)cc2)c1 [SB-366791]	93.9
CC(C)(C)COc1ccc(-n2cc(C(=O)O)cn2)cc1C#N [Piraxostat]	70.5
CN(C)c1ccc(N=NS(=O)(=O)[O-])cc1.[Na+] [Fenaminosulf]	58.5

Same assay, conditions: ZIKV-infected human astrocytes; read-out: Caspase 3 (IC50, uM) Astrocyte

Compound	IC50 [µM]
N#C/C(=C\c1ccc(O)c(O)c1)C(=O)Nc1ccccc1 [Tyrphostin AG 494]	18.4
COc1cccc(NC(=O)/C=C/c2ccc(Cl)cc2)c1 [SB-366791]	4.11
CC(C)(C)COc1ccc(-n2cc(C(=O)O)cn2)cc1C#N [Piraxostat]	8.91
CN(C)c1ccc(N=NS(=O)(=O)[O-])cc1.[Na+] [Fenaminosulf]	35.5

These compounds were tested on ZIKV-induced caspase 3/7 activity in hNPCs (assay: Caspase 3/7 activity assay, ZIKV-infected hNPCs). Conditions: ZIKV-infected hNPCs.
Format: cell-based
Protocol: Caspase-Glo 3/7 assay kit (catalog number G8092; Promega, Madison, Wis.) was used to detect caspase 3/7 activity. Reagents were reconstituted as described in the protocol from the manufacturer. Polystyrene plates (384-well and 1536-well; regular tissue culture treated and PDL coated) were purchased from Greiner Bio-One (Monroe, N.C.). Cells were seeded in 384- and 1536-well assay plates and cultured at 37° C. with 5% CO2 for 16 hours. ZIKV solution was added to cells, followed by incubation at 37° C. with 5% CO2 for 6 hours. Caspase-Glo 3/7 was added to each well, unless otherwise specified, and incubated at room temperature for 30 minutes. The luminescence intensity of the assay plates was measured using a ViewLux plate reader (PerkinElmer). Data were normalized by using the cell-containing wells without ZIKV as a negative control (0% induction of caspase 3/7 activity) and wells containing ZIKV infected cells that induced caspase 3/7 activity were used as a positive control (100% induction of caspase 3/7 activity).
Human NPCs were seeded onto PDL coated 1536-well assay plates at 250 cells per 3 μl/well and incubated at 37° C. in 5% CO2 for 16 hours. Test compounds dissolved in DMSO were transferred to assay plates at a volume of 23 nl/well by an automated pintool workstation (Wako Automation, San Diego, Calif.). Compounds were incubated with cells for 30 minutes at 37° C. in 5% CO2, immediately followed by the addition of 2 μl/well of ZIKV. Incubation time of compound-treated cells with ZIKV varied based on assay format. Experiments measuring virus-induced caspase 3/7 activity required a 6 hour incubation of ZIKV in the presence compounds at 37° C. in 5% CO2. Following this incubation, 3.5 μl/well of caspase 3/7 reagent mixture was added to assay plates. The plates were incubated for 30 minutes at room temperature, and the resultant luminescence signal was measured using a ViewLux plate reader (Perkin Elmer). Experiments measuring virus-induced cell death required a 72-hour incubation of ZIKV in the presence of compounds at 37° C. in 5% CO2. Following this incubation, 3.5 μl/well of ATP content detection reagent was added to assay plates, incubated for 30 minutes at the room temperature, and the resultant luminescence signal was measured in a ViewLux plate reader.
Caspase-Glo 3/7 assay kit (Promega) was used to detect caspase 3/7 activity. Reagents were reconstituted as described in the protocol from the manufacturer. Cells were seeded in 384- and 1536-well assay plates and cultured at 37° C. with 5% CO2 for 16 hours. ZIKV solution was added to cells, followed by incubation at 37° C. with 5% CO2 for 6 hours. Caspase-Glo 3/7 was added to each well at a 1:1 ratio, unless otherwise specified, and incubated at room temperature for 30 minutes. The luminescence intensity of the assay plates was measured using a ViewLux plate reader (PerkinElmer). Data was normalized by using the cell-containing wells without ZIKV as a negative (0% induction of caspase 3/7 activity) control and wells containing ZIKV infected cells that induced caspase 3/7 activity were used as a positive control (100% induction of caspase 3/7 activity).
Human NPCs were seeded onto PDL coated 1536-well assay plates at 250 cells per 3 μl/well and incubated at 37° C. in 5% CO2 for 16 hours. Test compounds dissolved in DMSO were transferred to assay plates at a volume of 23 nl/well by an automated pintool workstation (Wako Automation, San Diego, Calif.). Compounds were incubated with cells for 30 minutes at 37° C. in 5% CO2, immediately followed by the addition of 2 μl/well of ZIKV. Incubation time of compound-treated cells with ZIKV varied based on assay format. Experiments measuring virus induced caspase 3/7 activity required a 6 hour incubation of ZIKV in the presence compounds at 37° C. in 5% CO2. […]

Compound	Caspase 3 (efficacy, %) NPCs [%]
N#C/C(=C\c1ccc(O)c(O)c1)C(=O)Nc1ccccc1 [Tyrphostin AG 494]	72.8
COc1cccc(NC(=O)/C=C/c2ccc(Cl)cc2)c1 [SB-366791]	89.9
CC(C)(C)COc1ccc(-n2cc(C(=O)O)cn2)cc1C#N [Piraxostat]	67.1
CN(C)c1ccc(N=NS(=O)(=O)[O-])cc1.[Na+] [Fenaminosulf]	0.0

Same assay, conditions: ZIKV-infected hNPCs; read-out: Caspase 3 (IC50, uM) NPCs

Compound	IC50 [µM]
N#C/C(=C\c1ccc(O)c(O)c1)C(=O)Nc1ccccc1 [Tyrphostin AG 494]	17.3
COc1cccc(NC(=O)/C=C/c2ccc(Cl)cc2)c1 [SB-366791]	2.91
CC(C)(C)COc1ccc(-n2cc(C(=O)O)cn2)cc1C#N [Piraxostat]	15.8
